Seven compounds from PubChem BioAssay (NCI) can be followed below.

Common to all, as to assay: DTP human tumour cell line panel, 48 h
Experiment [1] relates to SK-OV-3 ovarian.
Experiment [2] concerns A498 renal.
The test system of experiment [3] is IGROV1 ovarian.
Experiment [4] has as its system M14 melanoma.
Experiment [5] concerns EKVX NSCLC.
Experiment [6] has as its system UO-31 renal.
The subject of experiment [7] is HS 578T breast.
Experiment [8] has as its system RPMI-8226 leukemia.
In experiment [9] the test system is HT29 colon.
In experiment [10] the test system is SK-MEL-28 melanoma.
Experiment [11] concerns OVCAR-5 ovarian.
Experiment [12] has as its system MDA-MB-435.
Experiment [13] relates to SN12C renal.
Experiment [14] has as its system U251 CNS.
The test system of experiment [15] is 786-0 renal.
The subject of experiment [16] is HOP-62 NSCLC.
For experiment [17], the system named is HOP-92 NSCLC.
For experiment [18], the system named is SR leukemia.
Experiment [19] concerns UACC-257 melanoma.
Experiment [20] relates to MDA-MB-231 breast.

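Test compounds were applied to cells in 96-well plates for 48 hours at 5 doses. TGI: concentration producing complete growth inhibition.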

For `CC1=CCC(C)=Nc2nc3ccccc3n21`, the TGI in experiment [1] was greater than 100 µM; in experiment [2], greater than 100 µM; in experiment [3], greater than 100 µM; in experiment [4], greater than 100 µM; in [5], greater than 100 µM; in [6], 58.9 µM. The TGI in [7], in experiment [8], in [9], in [10], in [11] and in experiment [12] was greater than 100 µM each time. The TGI in experiment [13], in [14], in [15], in experiment [16], in experiment [17] and in [18] was greater than 100 µM each time. Further, the TGI in experiment [19] and in [20] was greater than 100 µM each time.

For `Cc1c(C)n(-c2ccccc2)c2nc(S(C)(=O)=O)nc(S(C)(=O)=O)c12`, the TGI in [1] is 34.2 µM; in [2] it was 28.9 µM; in experiment [3], 9.24 µM; in [4] it was 3.1 µM; in [5], 11.7 µM; in experiment [6], 3.23 µM. The TGI in experiment [7] is greater than 85.5 µM; in experiment [8], 4.94 µM; in experiment [9], 3.74 µM; in [10], 6.73 µM; in [11], 3.63 µM; in experiment [12], 3.56 µM. The TGI in experiment [13] was found to be 33.8 µM; in experiment [14], 11.2 µM; in experiment [15], 2.55 µM; in experiment [16], 33.2 µM; in experiment [17] it was 3.2 µM; in experiment [18] it was 2.46 µM. Moreover, the TGI in experiment [19] amounted to 3.16 µM; in experiment [20], 19.4 µM.

With `O=C(CCc1cc(O)ccc1O)OCCc1ccccc1`, the TGI in experiment [1] is greater than 100 µM; in experiment [2], greater than 100 µM; in experiment [3], 22.3 µM; in experiment [4] it was greater than 61.6 µM; in experiment [5] it was 61.9 µM; in experiment [6], 18.7 µM. Moreover, the TGI in [7] was 67.7 µM; in experiment [8], greater than 23.2 µM; in experiment [9] it was greater than 100 µM; in experiment [10], 78.7 µM; in experiment [11] it was greater than 52.1 µM; in experiment [12], 24.5 µM. For the same compound, the TGI in experiment [13] is 44.9 µM; in experiment [14], 29.1 µM; in experiment [15] it was 24.5 µM; in experiment [16], greater than 100 µM; in [17] it was 13 µM; in experiment [18], greater than 100 µM. Moreover, the figures for the TGI in experiment [19] and in experiment [20] were 28.9 µM and 42.7 µM, respectively.

On to `O=S1(=O)Cc2ccc3c4c2-c2c(ccc5ccc(c-4c25)CS(=O)(=O)C3)C1`, for which the TGI in experiment [1], in [2], in experiment [3], in experiment [4], in [5] and in experiment [6] was greater than 100 µM in each case. The TGI in experiment [7], in experiment [8], in experiment [9], in experiment [10], in [11] and in experiment [12] was greater than 100 µM in each case. For the same compound, the TGI in [13] was greater than 100 µM; in [14], greater than 100 µM; in experiment [15], greater than 100 µM; in experiment [16], greater than 100 µM; in experiment [17], greater than 100 µM; in experiment [18], 69 µM. For the same compound, the TGI in experiment [19] and in experiment [20] was greater than 100 µM throughout.

Turning to `COC(=O)c1c(C#N)[nH]c(-c2ccsc2)c1C(=O)OC`, the TGI in experiment [1], in experiment [2], in experiment [3], in [4], in [5] and in [6] was greater than 100 µM in each case. In addition, the TGI in experiment [7], in experiment [8], in experiment [9], in [10], in [11] and in [12] was greater than 100 µM throughout. The TGI in experiment [13], in experiment [14], in [15], in experiment [16], in [17] and in experiment [18] was greater than 100 µM in each case. The TGI in experiment [19] and in experiment [20] was greater than 100 µM each time.

Take `CCC(=O)O[C@H]1CC[C@H]2[C@@H]3CCC4=C/C(=N/OC(=O)c5cccc6c(=O)c7ccccc7[nH]c56)CC[C@]4(C)[C@H]3CC[C@]12C`: the TGI in [1] was greater than 100 µM; in [2], 77.7 µM; in experiment [3] it was 77.6 µM; in experiment [4] it was 77.7 µM; in [5], greater than 100 µM; in experiment [6], 62.2 µM. Further, the TGI in experiment [7] is greater than 100 µM; in [8], 54.7 µM; in experiment [9], greater than 100 µM; in experiment [10], greater than 100 µM; in experiment [11], greater than 100 µM; in experiment [12] it was 99.6 µM. Also, the TGI in [13] was greater than 100 µM; in experiment [14], greater than 100 µM; in experiment [15] it was 36.5 µM; in [16], greater than 100 µM; in experiment [17], 74.5 µM; in experiment [18], greater than 100 µM. The TGI in experiment [19] and in experiment [20] was greater than 100 µM throughout.

In the case of `COc1ccc(NC(=O)N(C)CC2(O)CCC(C(C)(C)C)CC2)cc1` (stereo not given), the TGI in experiment [1], in experiment [2], in [3], in [4], in [5] and in [6] was greater than 100 µM each time. Moreover, the TGI was greater than 100 µM in experiment [7]; 72.5 µM in experiment [8]; greater than 100 µM in [9]; greater than 100 µM in experiment [10]; greater than 100 µM in experiment [11]; greater than 100 µM in experiment [12]. Besides, the TGI was greater than 100 µM in experiment [13]; greater than 100 µM in [14]; greater than 100 µM in [15]; greater than 100 µM in [16]; 90.4 µM in experiment [17]; greater than 100 µM in [18]. In addition, the TGI in experiment [19] and in experiment [20] was greater than 100 µM throughout.
